In patent US7977484B2, “Crystalline form of cyano-1-cyclopropy1-7-1S,6S-2,8-diazabicyclo[4.3.0]nonan-8-yl)-6-fluoro-1,4-dihydro-4-oxo-3-quinoline carboxylic acid” (Bayer Animal Health GmbH, priority 2004, dated 2011):

Assays:
[1] = water uptake from the air (hygroscopicity); type: physicochemical
[2] = storage stability of the crystal form; type: physicochemical; conditions: prolonged storage

conversion to other crystal forms [2]: not converted to other crystal forms
SMILES: N#Cc1c(N2C[C@@H]3CCCN[C@@H]3C2)c(F)cc2c(=O)c(C(=O)O)cn(C3CC3)c12 [Pradofloxacin trihydrate, pradofloxacin trihydrate]
tendency to take up further water from the air [1]: does not show any tendency to take up further water from the air
